How the values were obtained:
[1] = test system: complex karyotype (CK) AML cell lines; experiment: In vitro combination with standard of care agents; assay type: cell-based; details: in combination with Venetoclax (Bcl2 inhibitor) and 5-Azacytidine; multiple CK AML cell lines in vitro
[2] = Phase 1 dose-escalation study (NCT03187288); assay type: in vivo, human
Procedure: This study (NCT number: NCT03187288) is a multi-center, phase 1, dose-escalation trial designed to assess the safety, tolerability, pharmacokinetics, and clinical benefit of treatment with Compound (I) fumarate administered orally over a range of doses in patients with acute myeloid leukemia (AML) or myelodysplastic syndrome (MDS) that is relapsed or refractory to current treatment or for which no curative therapy exists.
Results: 9 patients with relapsed or refractory AML were treated with escalating doses of Compound (I) (64 mg to 128 mg) administered orally once daily. Among them, 3 patients were dosed at 64 mg, 4 patients were dosed at 96 mg, and 2 patients were dosed at 128 mg. Of six patients evaluable for response, two (33%) achieved complete remission (CR), and 3 patients (50%) had stable disease (with one patient having a 78% reduction in marrow blast count). The dose limiting toxicity (DLT) was determined to be colitis at the 128 mg dose level. […] However, only 4 patients were enrolled at the 96 mg dose level before the study was paused for enrollment and was amended.

[3] = test system: RAJI; experiment: In vitro cytotoxicity (IC50) assay, alamarBlue; assay type: cell-based; details: NHL B-Cell Burkitt
Procedure: (§1) Cells were seeded in triplicate at 10,000 per 80 uL, into 96-well plates 24 hours before compound overlay and cultured at 37° C. and 5% CO2. Compound (I) was prepared as a 10 mM stock in 100% DMSO and diluted with RPMI 1640 cell growth medium containing 10% FBS such that the final concentrations ranged from 50 pM to 15 uM. Aliquots (20 uL) from each concentration were overlaid to 80 uL of pre-seeded cells to achieve final concentrations of 10 pM to 3 uM. After 3 days, cell viability in each well was assessed by alamarBlue assay according to the manufacturer's instruction (ThermoFisher Scientific). Absorbance was read at 570 nm using a SpectraPlus microplate reader (Molecular Devices Corporation). alamarBlue absorbance values were adjusted by subtracting the average of the baseline readings from untreated cells assessed one day after cell seeding. The percentage (%) of relative inhibition of cell viability was calculated by comparing to DMSO-treated cells. IC50s were calculated using GraphPad PRISM software (GraphPad Software Inc.).

[4] = test system: DAUDI; experiment: In vitro cytotoxicity (IC50) assay, alamarBlue; assay type: cell-based; details: NHL B-Cell Burkitt
Procedure: as §1

[5] = test system: OCI-AML2; experiment: In vitro cytotoxicity (IC50) assay, alamarBlue; assay type: cell-based; details: OCI-AML2, AML M4
Procedure: as §1

[6] = test system: OCI-LY10; experiment: In vitro cytotoxicity (IC50) assay, alamarBlue; assay type: cell-based; details: OCI-LY10, NHL ABC-DLBCL
Procedure: as §1

[7] = test system: MV4-11 acute myeloid leukemia xenograft; experiment: MV4-11 xenograft tumor growth in SCID mice; assay type: in vivo; details: for tumor response by day 10: fumarate
Procedure: The human acute myeloid leukemia cell line MV4-11 was acquired from American Type Culture Collection (Manassas, VA, USA) and grown in RPMI medium containing 100 units/mL penicillin G sodium, 100 μg/mL streptomycin sulfate. The media was supplemented with 10% heat-inactivated fetal bovine serum, 2 mM L-glutamine, and 0.11% sodium pyruvate. The tumor cells were maintained in a humidified environment of 5% CO2 and 95% air at 37° C. Cells were verified to be free of mouse pathogens by IMPACT IV PCR analysis (IDEXX RADIL, Colombia, MO, USA) before injection.
Female SCID mice were purchased from the Ontario Cancer Institute and received and acclimated at the MaRS-TMDT Animal Resources Centre for 2 weeks prior to the start of the experiment. The mice were fed ad libitum autoclaved water and Rodent Lab Diet (Harlan Teklad LM-485) consisting of 19% crude protein, 5% crude fat, and 5% crude fiber. Mice were housed in microisolator cages and maintained in an environment with a 12-hour light cycle at 20-22° C. and 40-60% humidity. On the day of implantation, MV4-11 cells were harvested and resuspended with serum free DMEM to a concentration of 1×10^8/mL and each mouse was injected subcutaneously with a volume of 0.1 mL containing 1×10^7 MV4-11 cells in the right rear flank.
Animals were dosed Compound (I) via oral gavage in a volume of 10 ml/kg. The animals were dosed with a 2.25 mm×50 mm curved gavage needle affixed to a 1 ml syringe. Vincristine was dosed by IP injection once per week.
Toxicity was evaluated by body weight measurements and clinical observations. The mice were observed daily for overt signs of any adverse, treatment related side effects, and clinical signs of toxicity. Acceptable toxicity was set at a group mean body weight loss of less than 20% during the study and not more than one treatment related death in a group. Animals were monitored for body weights and tumor growth where tumor volumes were calculated using the formula: tumor volume=width^2×length/2.
The study evaluated Compound (I) fumarate administered by oral gavage, either daily at 7.5 mg/kg or 2 days on/5 days off at 13.5 mg/kg, in comparison to the standard-of-care agent vincristine, dosed in 4 weekly intraperitoneal injections of 0.5 mg/kg, in the MV4-11 acute myeloid leukemia xenograft model in SCID (severe combined immunodeficiency) mice. Xenografts were established by subcutaneously injecting 1×10^7 tumor cells into the right flank of female SCID mice. Treatment was initiated 14 days following implantation when tumor volumes reached a mean volume of approximately 90 mm^3. […] Animals were dosed in the 2-on/5-off schedule for 21 days. […] By day 13, the average volume of the control tumors was 878 mm^3, averaging […] tumor growth over the 13 days. On day 13 the average tumor growth inhibition in the vincristine treated arm was 85% (p=0.14).

[8] = test system: MV4-11; experiment: In vitro cytotoxicity (IC50) assay, alamarBlue; assay type: cell-based, human; details: MV4-11, AML M5
Procedure: as §1

[9] = test system: MOLT-4; experiment: In vitro cytotoxicity (IC50) assay, alamarBlue; assay type: cell-based, human; details: MOLT-4, T-ALL
Procedure: as §1

[10] = test system: cancer cells; experiment: Compound (I) treatment of cancer cells (FIG. 1); assay type: cell-based
Procedure: as §1

[11] = Homo sapiens, 72 h, 3 days, read-out: Compound (I) IC50

For `COc1ccc2c(c1)[C@]1(C[C@H]1c1ccc3c(/C=C/c4ccc(CN5C[C@@H](C)O[C@@H](C)C5)cc4)n[nH]c3c1)C(=O)N2` [Compound (I), (1R,2S)-2-(3-((E)-4-(((2S,6R)-2,6-dimethylmorpholino)methyl)styryl)-1H-indazol-6-yl)-5′-methoxyspiro[cyclopropane-1,3′-indolin]-2′-one], the combination activity [1] was “additive/synergistic activity”, the “dose limiting toxicity (DLT)” value ([2]; 128 mg dose level, orally once daily) was “colitis” and the “patients with stable disease” value ([2]; 3 of six evaluable patients, 64 mg to 128 mg orally once daily) was 50%. The “effect on outcome of a patient” value ([2]; a patient with CK AML) was “positively affected the outcome”, the “reduction in marrow blast count” value ([2]; one patient with stable disease) was 78% and the “single agent clinical activity” value ([2]; patients with poor risk AML) was “has activity”. The “patients achieving complete remission (CR)” value ([2]; two of six evaluable patients, 64 mg to 128 mg orally once daily) was 33%, the IC50 [3, 11] was 0.1 nM and the “Response to Compound (I)” value [3] was “death”. The IC50 [4, 11] was 0.2 nM, the “Response to Compound (I)” value [4] was “death” and the “Response to Compound (I)” value [5] was “mitotic defects +”. The IC50 [6, 11] was 6.8 nM, the “Response to Compound (I)” value [6] was “death” and the “animals remained tumor-free until” value ([7]; 2 days-on/5 days-off arm, 13.5 mg/kg) was 24 days. For the same compound, the “overall efficacy in MV4-11 xenograft model” value ([7]; SCID mice) was “very efficacious and potentially curative”, the “animals remained tumor-free until” value ([7]; daily dosing arm, 7.5 mg/kg) was 74 days and the “animals tumor free until last measurement time point” value ([7]; daily dosing arm, Day 128) was “Four of 6”. The “tumor response by day 10” value ([7]; oral 13.5 mg/kg 2-on/5-off) was “completely regressed tumors”, the “tumor response by day 10” value ([7]; oral daily 7.5 mg/kg) was “completely regressed tumors” and the “toxicity: reason daily dosing was halted” value ([7]; oral daily 7.5 mg/kg, halted after 14 days) was “excessive body weight loss”. For the same compound, the IC50 [8, 11] was 5.7 nM, the “Response to Compound (I)” value [8] was “death” and the IC50 [9, 11] was 4.1 nM. For the same compound, the “Response to Compound (I)” value [9] was “death” and the “effect of treatment on cancer cells” value [10] was “aberrant mitoses leading to death or arrest”.

Reference: patent US12533357B2, “Treatment for acute myeloid leukemia or myelodysplastic syndrome” (UNIVERSITY HEALTH NETWORK, priority 2019, dated 2026)
